Experimental data as given in patent US20220298158A1, “POLYMORPH OF VENETOCLAX AND METHOD FOR PREPARING THE POLYMORPH” (Johnson Matthey Public Limited Company, priority 2019, published 2022).

Assay: Stability study of venetoclax anhydrate under storage conditions (XRPD before and after storage)
Type: physicochemical
Protocol: (§1) FIG. 6 is representative XRPD overlay of venetoclax anhydrate before storage (bottom), venetoclax anhydrate after storage at 25° C./97% RH (relative humidity) for 7 days (middle), and venetoclax anhydrate after storage at 40° C./75% RH for 7 days (top).
X-Ray Powder Diffraction patterns were collected on a Bruker AXS C2 GADDS diffractometer using Cu Kα radiation (40 kV, 40 mA), automated XYZ stage, laser video microscope for auto-sample positioning and a HiStar 2-dimensional area detector. X-ray optics consists of a single Göbel multilayer mirror coupled with a pinhole collimator of 0.3 mm.
The beam divergence, i.e. the effective size of the X-ray beam on the sample, was approximately 4 mm. A θ-θ continuous scan mode was employed with a sample—detector distance of 20 cm which gives an effective 2θ range of 3.2° — 29.7° . Typically the sample would be exposed to the X-ray beam for 120 seconds. The software used for data collection was GADDS for XP/2000 4.1.43 and the data were analysed and presented using Diffrac Plus EVA v15.0.0.0.
as §1, with “Stability studies of venetoclax anhydrate under two storage conditions were also carried out. FIG.” for “FIG.”, “C/97%” for “C./97%”, “C/75%” for “C./75%”, “(top). […]” for “(top).”

CC1(C)CCC(CN2CCN(c3ccc(C(=O)NS(=O)(=O)c4ccc(NCC5CCOCC5)c([N+](=O)[O-])c4)c(Oc4cnc5[nH]ccc5c4)c3)CC2)=C(c2ccc(Cl)cc2)C1 [venetoclax anhydrate, 4-(4-{[2-(4-chlorophenyl)-4,4-dimethylcyclohex-1-en-1-yl]methyl}piperazin-1-yl)-N-({3-nitro-4-[(tetrahydro-2H-pyran-4-ylmethyl)amino]phenyl}sulfonyl)-2-(1H-pyrrolo[2,3-b]pyridine-5-yloxy)benzamide]
time the anhydrate remains stable on storage (XRPD overlay) (storage at 25° C/97% RH (relative humidity) for 7 days): at least 7 days | time the anhydrate remains stable on storage (XRPD overlay) (storage at 40° C/75% RH for 7 days): at least 7 days
